The source made the active and inactive calls. The rule behind the calls is not given here.

One assay has as its system RAW264.7. Kind of assay: Antiinflammatory activity in LPS-induced mouse RAW264.7 cells assessed as reduction in NO production at 10 to 30 microg/ml preincubated for 24 hrs by Griess reagent based assay. The class given is functional, cell-based. The conditions noted are these: dose 10-30 µg/ml. In general terms: The Griess reaction detects nitrite, a stable product of nitric oxide.

Another assay deals with NCI-H460. Description: Cytotoxicity against human NCI-H460 cells at 2 to 60000 nM incubated for 48 hrs by MTT assay. The note with it: dose 2-60000 nM. The class given is functional, cell-based. On the technique in general: Tetrazolium dyes change colour on reduction, which living cells bring about.

As for `C[C@H](C[C@@H](C)CCC(=O)N[C@@H](Cc1ccccc1)[C@H](O)C[C@H](O)CC(=O)N[C@@H](Cc1ccccc1)[C@H](O)CC(=O)NCC(=O)O)C[C@@H]1CSC(c2ccccc2O)=N1`, the outcome in the assay with RAW264.7 was inactive. Further, the outcome in the assay on NCI-H460 was Active.

(Values after ChEMBL document CHEMBL6153099, “Fatuamide A, a Hybrid PKS/NRPS Metallophore from a Leptolyngbya sp. Marine Cyanobacterium Collected in American Samoa” (J Nat Prod, 2025).)
